Measurements published in patent US20200407398A1, “Short Proline-Rich Lipopeptide Potentiates Minocycline and Rifampicin Against Multidrug-and Extensively Drug-Resistant Pseudomonas Aeruginosa” (priority 2018, published 2020).
Square brackets hold non-standard residues; d marks the D form. Peptide text beside a SMILES is read from it. * marks the point of attachment. Lauroyl = CCCCCCCCCCCC(=O)*

Columns and labels:
[1] = system: P. aeruginosa PAO1 (wild-type); test: microbe, parasite or virus in culture
Experimental: We evaluated the activity of SPRLPs in combination with fifteen clinically-used antibiotics against P. aeruginosa. Antibiotics tested included fluoroquinolones (moxifloxacin, ciprofloxacin and levofloxacin), aminoglycosides (gentamicin, tobramycin and amikacin), cephalosporins (ceftazidime and cefotaxime), carbapenems (meropenem and doripenem), aztreonam, rifampicin, minocycline, colistin and fosfomycin. The SPRLPs were screened initially at a fixed concentration of 8 μg/mL (5 μM) in combination with antibiotics against wild-type P. aeruginosa PAO1. We assessed potentiation by at least a four-fold absolute MIC reduction of the antibiotic, after which synergism was further validated by a conventional checkerboard assay. A fractional inhibitory concentration (FIC) index of ≤0.5, 0.5<x≤4 or >4 was interpreted as synergistic, indifferent or antagonistic interaction, respectively (31). FIC index was obtained by adding the FIC values of the antibiotic and the SPRLP adjuvant. FIC of antibiotics was calculated by dividing the MIC of the antibiotic in the presence of the adjuvant by the MIC of the antibiotic alone. Similarly, the FIC of adjuvant was calculated via dividing the MIC of the adjuvant in the presence of the antibiotic by the MIC of the adjuvant alone.
Microbroth dilution susceptibility test following the Clinical and Laboratory Standards Institute (CLSI) guidelines (32) was performed to assess the in vitro antibacterial activity of SPRLPs. Overnight grown bacterial cultures were diluted in saline to achieve a 0.5 McFarland turbidity, followed by 1:50 dilution in Mueller-Hinton broth (MHB) for inoculation to a final concentration of 5×10^5 colony forming units/mL. The assay was done on a 96-well plate to which the agents of interest were 2-fold serially diluted in MHB and incubated with equal volumes of inoculum at 37° C. for 18 hours. MIC was determined as the lowest concentration to inhibit visible bacterial growth in form of turbidity, which was confirmed using EMax Plus microplate reader (Molecular Devices, USA) at a wavelength of 590 nm. The well containing MHB broth with or without bacterial cells was used as positive or negative control, respectively.
The assay was performed on a 96-well plate, to which the agents of interest was 2-fold serially diluted in working MHB. Prior to serial dilution, SPRLP was added to the working MHB media so that a fixed final concentration of 8 μg/mL (5 μM) SPRLP per well was achieved. To ensure that the assay was working, the MIC determination test of the studied antibiotic (without SPRLP) was included on the same plate. Similar MIC results between the assay comparator and an independent MIC determination test (on a different plate) ensured validity of the synergy test. Overnight grown bacterial cultures were diluted in saline to 0.5 McFarland turbidity, followed by 1:50 dilution in MHB (without SPRLP) and inoculation into each well to a final concentration of approximately 5×10^5 colony forming units/mL. Wells containing only MHB (without SPRLP) with or without bacterial cells were used as positive or negative control, respectively. The plate was then incubated at 37° C. for 18 hours and examined for visible turbidity, to which was confirmed using EMax Plus microplate reader (Molecular Devices, USA) at a wavelength of 590 nm. A 4-fold or more MIC reduction of antibiotic in the presence of 8 μg/mL (5 μM) SPRLP denoted a positive synergy result and was further validated by a checkerboard assay.
The assay was done on a 96-well plate as previously described (40, 41). The agent of interest was 2-fold serially diluted along the x-axis, while the adjuvant was 2-fold serially diluted along the y-axis to create a matrix in which each well consist of a combination of both at different concentrations.

E. coli ATCC 25922 = type: cell-based
How it was run: (§1)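 MICs were determined by CLSI broth microdilution in Mueller-Hinton broth, using 2-fold serial dilutions and an inoculum of 5×10^5 CFU/mL. Plates were incubated 18 hours at 37° C. The MIC was the lowest concentration preventing visible turbidity, confirmed by absorbance at 590 nm.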

P. aeruginosa ATCC 27853 = type: cell-based
How it was run: as §1

[2] = system: E. coli CANWARD-2011 97615 (gentamicin-, tobramycin-, ciprofloxacin-resistant) aac(3′)iia; type: cell-based
How it was run: as §1

[3] = system: E. coli CAN-ICU 63074 (amikacin-intermediate resistant); type: cell-based
How it was run: as §1

[4] = system: P. aeruginosa CAN-ICU 62308 (gentamicin-resistant); type: cell-based
How it was run: as §1

[5] = system: S. maltophilia CAN-ICU 62584; type: cell-based
How it was run: as §1

[6] = system: methicillin-resistant S. epidermidis CAN-ICU 61589 (ceftazidime-resistant); type: cell-based; conditions: methicillin-resistant CAN-ICU 61589 (ceftazidime-resistant)
How it was run: as §1

[7] = system: methicillin-resistant S. aureus ATCC 33592; type: cell-based
How it was run: as §1

[8] = system: P. aeruginosa wild-type PAO1; type: cell-based
How it was run: as §1

[9] = system: P. aeruginosa CANWARD-2011 96846 (gentamicin-, tobramycin-resistant); type: cell-based
How it was run: as §1

S. aureus ATCC 29213 = type: cell-based
How it was run: as §1

[10] = system: A. baumannii CAN-ICU 63169; type: cell-based
How it was run: as §1

E. faecalis ATCC 29212 = type: cell-based
How it was run: as §1

K. pneumoniae ATCC 13883 = type: cell-based
How it was run: as §1

[11] = P. aeruginosa PAO1, degree of minocycline potentiation in the presence of 8 μg/mL (5 μM) lipopeptide
[12] = P. aeruginosa PAO1, degree of rifampicin potentiation in the presence of 8 μg/mL (5 μM) lipopeptide

| Structure (SMILES) | Absolute MIC MIN ([1]; P. aeruginosa PAO1, MIC of minocycline in the presence of 8 μg/mL (5 μM) lipopeptide) | Absolute MIC RMP ([1]; P. aeruginosa PAO1, MIC of rifampicin in the presence of 8 μg/mL (5 μM) lipopeptide) | MIC (agent alone) ([1]; P. aeruginosa PAO1, antibiotic or lipopeptide alone) | Potentiation [1, 11] | Potentiation [1, 12] | MIC (agent alone) ([1]; PAO1) | MIC (E. coli ATCC 25922) | MIC (P. aeruginosa ATCC 27853) | MIC [2] | MIC [3] | MIC [4] | MIC [5] | MIC [6] | MIC [7] | MIC [8] | MIC [9] | MIC (S. aureus ATCC 29213) | MIC [10] | MIC (E. faecalis ATCC 29212) | MIC (K. pneumoniae ATCC 13883) |
| --- | --- | --- | --- | --- | --- | --- | --- | --- | --- | --- | --- | --- | --- | --- | --- | --- | --- | --- | --- | --- |
| CCCCCCCCCCCC(=O)N1CCC[C@@H]1C(=O)N[C@H](CCCNC(=N)N)C(=O)N1CCC[C@@H]1C(=O)N[C@H](CCCNC(=N)N)C(=O)N1CCC[C@@H]1C(=O)N[C@H](CCCNC(=N)N)C(=O)N1CCC[C@@H]1C(N)=O [C12-prp] (Lauroyl-[dP][dR][dP][dR][dP][dR][dP]-NH2) | 2 µg/mL | 1 µg/mL | >128 µg/mL | 4-fold | 8-fold |  |  |  |  |  |  |  |  |  |  |  |  |  |  |  |
| CCCCCCCCCCCC(=O)N1CCC[C@H]1C(=O)N[C@@H](CCCNC(=N)N)C(=O)N1CCC[C@H]1C(=O)N[C@@H](CCCNC(=N)N)C(=O)N1CCC[C@H]1C(=O)N[C@@H](CCCNC(=N)N)C(=O)N1CCC[C@H]1C(N)=O [Compound C12-PRP, CH3(CH2)10CO-PRPRPRP-NH2] (Lauroyl-PRPRPRP-NH2) |  |  |  | 8-fold | 8-fold | 128 µg/mL | >128 µg/mL | >128 µg/mL | >128 µg/mL | >128 µg/mL | >128 µg/mL | >128 µg/mL | 128 µg/mL | >128 µg/mL | 128 µg/mL | >128 µg/mL | 128 µg/mL | >128 µg/mL | >128 µg/mL | >128 µg/mL |
